Experimental data taken from patent publication US9242937B2, “Pharmaceutically active disubstituted pyridine derivatives” (Bayer Intellectual Property GmbH, priority 2011, dated 2016).

Tests used:
CDK2/CyclinA = molecular target: T1, CDK2/CyclinA (Homo sapiens, UniProt P24941); test: LanthaScreen Eu Kinase Binding Assay, CDK2; settings: tracer 236, read-out: CDK2 (activity range), Kd
T1 construct: purchased Proqinase
Experimental: (§1) This protocol describes how the LanthaScreen Eu Kinase Binding Assay was performed to determine dissociation constants (Kd) of compounds of general formula (I) and CDK/Cyclin complexes. The principle behind this assay is based upon the binding and displacement of an Alexa Fluor 647-labeled tracer, which binds to the active site of kinases. Binding of the tracer to the kinase is detected using a Eu-labeled antibody. Simultaneous binding of both the tracer and antibody to the kinase gives rise to a FRET-signal. Binding of an inhibitor to the kinase competes for binding with the tracer, resulting in a loss of FRET.
(§2) The compounds of general formula (I) summarized in Table 1 were diluted from a 10 mM DMSO stock solution 1:10 in a total volume of 15 μL DMSO. This compound predilution was then serial diluted 1:3 over 8 steps in DMSO and briefly spun down. Each compound solution was now diluted 1:33.33 in kinase buffer (HEPES: 20 mM, pH: 8.0; MgCl2: 10 mM; DTT: 1 mM; Brij-35: 0.01%), mixed thoroughly and spun down. For every sample, 5 μL of the diluted compound were mixed with 5 μL tracer working solution (e.g. 60 nM tracer 236 in kinase buffer for CDK2/Cyclin A) and 5 μL CDK/Cyclin/Anti-GST-AB-working solution (e.g. 15 nM CDK2/Cyclin A, 1:250 dilution of Anti-GST-AB in kinase buffer) in a well of a small volume 384 well plate (Corning Incorporated, Corning, N.Y., USA; order no. 3673). The tracer concentration was adjusted to its dissociation constant (Kd) for the CDK/Cyclin, which was 30 nM for CDK2/Cyclin A, CDK7/Cyclin H and CDK9/Cyclin T1, 20 nM for CDK8/Cyclin C, and 35 nM for CDK9/Cyclin K. For negative controls, in each well 5 μL of DMSO working solution (3% DMSO diluted in kinase buffer) was mixed with 5 μL Anti-GST-AB working solution (e.g. 1:250 dilution of Anti-GST-AB in kinase buffer for CDK2/Cyclin A) and 5 μL Tracer working solution (e.g. 60 nM Tracer 236 in kinase buffer for CDK2/Cyclin A). For positive controls, in each well 5 μL of DMSO working solution (3% DMSO diluted in kinase buffer) was mixed with 5 μL CDK/Cyclin/Anti-GST-AB-working solution: (e.g. 15 nM CDK2/Cyclin A, 1:250 dilution of Anti-GST-AB in kinase buffer) and 5 μL Tracer working solution (e.g. 60 nM Tracer 236 in kinase buffer for CDK2/Cyclin A). Positive and negative controls were calculated from at least 8 different sample wells. The 384 well plates were mixed in a Teleshaker plate mixer (Beckman Coulter, Brea, Calif., USA) at 2000 rpm for 40 sec, and incubated for 1 h at room temperature before reading. The FRET signal was measured at 340 nm excitation, 665 nm and 615 nm emission (for the kinase tracer and LanthaScreen Eu-AB, respectively) with an Envision spectrophotometer (Perkin Elmer, Waltham, Mass., USA) with 50 μs delay and 300 μs integration time. Kd values were determined from the sigmoidal dose response curves with the software Quattro Workflow (Quattro GmbH, Munich, Germany).

Hela cells = test: Cell viability assay, Hela cells; assay type: cell-based; settings: Homo sapiens, 72 h, Cell Titer Glo, read-out: Cell Viability - Hela cells (activity range), IC50
Experimental: Hela- or MDAMB468-Cells were maintained in RPMI 1640 or McCoy's 5A cell culture medium+glutamine (PAN Biotech GmbH, Aidenbach, Germany; order no. P04-22100; P04-05500) supplemented with 10% fetal calf serum “Gold” (PAA Laboratories GmbH, Pasching, Austria; order no. A15-151) and grown at 37° C., 5% CO2. For the cell viability assay, cells were seeded with a density of 400 (Hela cells, DSMZ Braunschweig order no. ACC57) or 800 (MDAMB468 cells, ATCC order no. HTB-132) per well in 25 μL in 384-well plates (Greiner Bio-One, Frickenhausen, Germany; order no. 781080). After overnight incubation at 37° C./5% CO2, 25 nL or 75 nL compound were added to each sample well by using BIOMEK FXP Laboratory Automation Workstation (Beckman Coulter, USA). Wells with cells and 0.1% or 0.3% DMSO in culture medium were used as positive controls, wells with cells and 10 μM staurosporine in culture medium were used as negative controls. The cells were incubated with the compounds for 72 h at 37° C./5% CO2. For measurement of cell viability 25 μL Cell Titer Glo reagent (Promega, Madison, USA; order no. G7573), 1:2 diluted with cell culture medium, was added to each well. The 384 well-plates were placed for 2 min on a orbital microplate shaker and incubated for further 10 min at room temperature to stabilize the luminescence signal. Luminescence was measured by Envision Plate Reader (Perkin Elmer, USA). IC50 values were calculated with the software Excel Fit (IDBS, Guildford, UK) from 3-fold dilution series comprising at least 8 concentrations in duplicates.

CDK7/CyclinH/MAT1 = molecular target: T2, CDK7/CyclinH/MAT1 (Homo sapiens, UniProt P50613); test: LanthaScreen Eu Kinase Binding Assay, CDK7; settings: tracer 236, read-out: CDK7 (activity range), Kd
T2 construct: purchased Carna Biosciences
Experimental: as §1, §2

CDK9/Cyclin K = molecular target: T3, CDK9/Cyclin K (Homo sapiens, UniProt P50750); test: LanthaScreen Eu Kinase Binding Assay, CDK9/Cyclin K; settings: tracer 236, read-out: CDK9/Cyclin K (activity range), Kd
T3 construct: purchased Invitrogen
Experimental: as §1, §2

T2 sequence (P50613 whole entry): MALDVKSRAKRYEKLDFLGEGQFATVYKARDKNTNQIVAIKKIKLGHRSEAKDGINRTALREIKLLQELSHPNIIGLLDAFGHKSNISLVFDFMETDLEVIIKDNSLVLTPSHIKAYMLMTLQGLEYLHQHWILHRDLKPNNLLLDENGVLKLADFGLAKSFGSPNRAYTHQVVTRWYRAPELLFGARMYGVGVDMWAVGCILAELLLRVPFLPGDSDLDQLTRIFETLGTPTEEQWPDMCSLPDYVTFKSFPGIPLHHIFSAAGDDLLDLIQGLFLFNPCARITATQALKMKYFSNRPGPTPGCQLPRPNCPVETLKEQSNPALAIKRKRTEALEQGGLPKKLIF
T2 sequence (P51946 whole entry partner): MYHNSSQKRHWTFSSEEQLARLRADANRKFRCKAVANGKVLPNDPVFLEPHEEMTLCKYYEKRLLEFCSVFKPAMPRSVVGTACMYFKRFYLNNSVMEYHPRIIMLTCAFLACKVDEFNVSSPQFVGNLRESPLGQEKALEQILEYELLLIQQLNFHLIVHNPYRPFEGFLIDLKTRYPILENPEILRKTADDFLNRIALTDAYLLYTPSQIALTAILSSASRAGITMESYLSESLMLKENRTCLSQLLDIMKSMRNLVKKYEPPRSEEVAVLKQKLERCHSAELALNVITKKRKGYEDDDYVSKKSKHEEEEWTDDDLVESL
T2 sequence (P51948 whole entry partner): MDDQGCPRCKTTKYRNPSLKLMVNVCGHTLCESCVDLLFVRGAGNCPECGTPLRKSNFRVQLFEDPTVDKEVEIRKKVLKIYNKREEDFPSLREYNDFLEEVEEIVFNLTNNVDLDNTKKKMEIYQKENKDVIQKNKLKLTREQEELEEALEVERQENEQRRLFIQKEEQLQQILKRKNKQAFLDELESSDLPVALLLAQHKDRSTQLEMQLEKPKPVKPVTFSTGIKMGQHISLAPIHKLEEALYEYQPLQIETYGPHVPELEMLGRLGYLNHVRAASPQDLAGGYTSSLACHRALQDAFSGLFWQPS
T3 sequence (P50750 whole entry): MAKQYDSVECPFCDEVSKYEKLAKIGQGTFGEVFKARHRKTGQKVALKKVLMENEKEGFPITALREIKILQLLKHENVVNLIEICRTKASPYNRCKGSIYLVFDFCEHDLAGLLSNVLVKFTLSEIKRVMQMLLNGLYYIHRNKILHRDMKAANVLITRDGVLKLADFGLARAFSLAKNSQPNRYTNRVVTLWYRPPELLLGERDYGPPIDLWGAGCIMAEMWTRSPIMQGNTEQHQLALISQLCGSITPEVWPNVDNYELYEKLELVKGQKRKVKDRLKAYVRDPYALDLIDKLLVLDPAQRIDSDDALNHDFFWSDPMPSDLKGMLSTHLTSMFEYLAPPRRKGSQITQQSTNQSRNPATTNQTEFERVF
T3 sequence (O75909 1-357 isoform O75909-1 partner): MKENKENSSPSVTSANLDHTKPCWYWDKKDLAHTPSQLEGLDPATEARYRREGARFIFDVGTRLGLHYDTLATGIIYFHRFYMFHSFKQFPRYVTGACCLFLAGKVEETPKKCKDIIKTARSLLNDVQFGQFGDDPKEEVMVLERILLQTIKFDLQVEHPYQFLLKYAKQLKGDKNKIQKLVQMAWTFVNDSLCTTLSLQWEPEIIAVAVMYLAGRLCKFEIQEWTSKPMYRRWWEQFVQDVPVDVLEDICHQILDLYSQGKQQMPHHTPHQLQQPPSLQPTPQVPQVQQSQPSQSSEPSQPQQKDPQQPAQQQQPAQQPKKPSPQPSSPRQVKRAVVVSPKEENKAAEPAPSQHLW

Row | SMILES | Kd (CDK2/CyclinA) [µM] | IC50 (Hela cells) [µM] | Kd (CDK7/CyclinH/MAT1) [µM] | Kd (CDK9/Cyclin K) [µM]
1 | COc1cc(F)ccc1-c1ccnc(Nc2cccc(CS(N)(=O)=O)c2)c1 [Compound G1, [3-((4-(4-Fluoro-2-methoxyphenyl)pyridin-2-yl)amino)phenyl]-methanesulfonamide] | 0.1 to 1 | 1 to 10 | > 10 | < 0.1
2 | COc1ccccc1-c1ccnc(Nc2cccc([N+](=O)[O-])c2)c1 [Compound C1, 4-(2-Methoxyphenyl)-N-(3-nitrophenyl)pyridin-2-amine] | – | – | – | 0.1 to 1
3 | COc1cc(F)ccc1-c1ccnc(Nc2cccc(NC(C)=O)c2)c1 [Compound J2, N-[3-((4-(4-Fluoro-2-methoxyphenyl)pyridin-2-yl)amino)phenyl]-acetamide] | 0.1 to 1 | > 10 | > 10 | –
4 | CCCNS(=O)(=O)Cc1cccc(Nc2cc(-c3ccc(F)cc3OC)ccn2)c1 [Compound K1, 1-[3-((4-(4-Fluoro-2-methoxyphenyl)pyridin-2-yl)amino)phenyl]-N-propylmethanesulfonamide] | 0.1 to 1 | > 10 | > 10 | –
5 | COc1ccccc1-c1ccnc(Nc2cccc(S(C)(=O)=O)c2)c1 [Compound F1, 4-(2-Methoxyphenyl)-N-(3-(methylsulfonyl)phenyl)pyridin-2-amine] | 0.1 to 1 | 1 to 10 | – | < 0.1

Next, values leading:

Row | Kd (CDK2/CyclinA) [µM] | IC50 (Hela cells) [µM] | Kd (CDK7/CyclinH/MAT1) [µM] | Kd (CDK9/Cyclin K) [µM] | SMILES
6 | 0.1 to 1 | > 10 | > 10 | – | COc1cc(F)ccc1-c1ccnc(Nc2cccc(CS(=O)(=O)N(C)C)c2)c1 [Compound G3, 1-[3-((4-(4-Fluoro-2-methoxyphenyl)pyridin-2-yl)amino)phenyl]-N,N-dimethylmethanesulfonamide]
7 | < 0.1 | 1 to 10 | 1 to 10 | – | COc1cc(F)ccc1-c1ccnc(Nc2cccc(NS(C)(=O)=O)c2)c1 [Compound J1, N-[3-((4-(4-Fluoro-2-methoxyphenyl)pyridin-2-yl)amino)phenyl]-methanesulfonamide]
8 | < 0.1 | 0.1 to 1 | > 10 | < 0.1 | COc1ccccc1-c1ccnc(Nc2cccc(S(N)(=O)=O)c2)c1 [Compound D1, 3-[(4-(2-Methoxyphenyl)pyridin-2-yl)amino]benzenesulfonamide]
9 | < 0.1 | > 10 | > 10 | < 0.1 | COc1ccccc1-c1ccnc(Nc2ccc(S(N)(=O)=O)cc2)c1 [Compound E1, 4-[(4-(2-Methoxyphenyl)pyridin-2-yl)amino]benzenesulfonamide]
